Data as given in patent US11291655B2, “RAD51 inhibitors” (Cyteir Therapeutics, Inc., priority 2017, dated 2022).

Tested on: Daudi Cell Culture
Assay: Compound primary screening in Daudi cell culture
Assay type: cell-based
Conditions: Daudi cells, 1250 cells per well, reads on Day 7; for EC50: Homo sapiens, 168 h
Method in brief: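 Daudi cells seeded at 1250 cells per well in 130 ul medium at 37° C. and treated with serially diluted compounds added from a media master plate; read on Day 7.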

EC50 [µM]	Compound	EC50 (μM)
> 10	CC(=O)Nc1ccc(-c2cnc(-c3ccc(N4CCOC4=O)cc3)s2)c(S(=O)(=O)NC(C)(C)C)c1 [Compound J19, N-[3-(tert-butylsulfamoyl)-4-[2-[4-(2-oxooxazolidin-3-yl)phenyl]thiazol-5-yl]phenyl]acetamide]	
< 5	CC(C)OC(=O)Nc1ccc(-c2ncc(-c3ccc(N(C)S(C)(=O)=O)cc3S(=O)(=O)NC(C)(C)C)s2)cc1 [Compound J18]	
> 10	Cn1ccnc1Nc1ccc(-c2cnc(-c3ccc(N)cc3)s2)c(S(=O)(=O)NC(C)(C)C)c1 [Compound E16]	
> 10	CC(C)OC(=O)Nc1ccc(-c2ncc(-c3ccc(N4CC(c5ccccc5)OC4=O)cc3S(=O)(=O)NC(C)(C)C)s2)cc1 (stereo not drawn) [Compound J29, isopropyl N-[4-[5-[2-(tert-butylsulfamoyl)-4-(2-oxo-5-phenyl-oxazolidin-3-yl)-phenyl]thiazol-2-yl]phenyl]carbamate]	
> 10	CC(=O)Nc1ccc(-c2cnc(-c3ccc(N4CC(C)(C)OC4=O)cc3)s2)c(S(=O)(=O)NC(C)(C)C)c1 [Compound J13]	
< 5	CC(=O)Nc1ccc(-c2cnc(-c3ccc(NC(=S)NC(C)C)cc3)s2)c(S(=O)(=O)NC(C)(C)C)c1 [Compound D30]	
> 10	CC(C)OC(=O)Nc1ccc(-c2ncc(-c3ccc(NS(=O)(=O)c4ccccc4)cc3S(=O)(=O)NC(C)(C)C)s2)cc1 [Compound E1]	
> 10	COC(=O)[C@H](CO)NS(=O)(=O)c1cc(NC(C)=O)ccc1-c1cnc(-c2ccc(NC(=S)NC(C)C)cc2)s1 [Compound D15]	
< 10	CC(C)NC(=S)Nc1ccc(-c2ncc(-c3ccc(NC(=O)NCc4cccnc4)cc3S(=O)(=O)NC(C)(C)C)s2)cc1 [Compound M3]	
< 5	CC(C)OC(=O)Nc1ccc(-c2ncc(-c3ccc(CO)cc3S(=O)(=O)NC(C)(C)C)s2)cc1 [Compound J1]	
< 5	CC(C)OC(=O)Nc1ccc(-c2ncc(-c3ccc(N4CCCC4=O)cc3S(=O)(=O)NC(C)(C)C)s2)cc1 [Compound J4]	
> 10	Cn1ccnc1Nc1ccc(-c2cnc(-c3ccc(N)cc3)s2)c(S(N)(=O)=O)c1 [Compound E18]	
> 10	CC(C)OC(=O)Nc1ccc(-c2ncc(-c3ccc(CNC(=O)c4ccccc4)cc3S(=O)(=O)NC(C)(C)C)s2)cc1 [Compound P4]	
< 1	CC(C)OC(=O)Nc1ccc(-c2ncc(-c3ccc(NC(=O)NCc4ccccc4)cc3S(=O)(=O)NC(C)(C)C)s2)cc1 [Compound A2]	
> 10	CC(C)NC(=S)Nc1ccc(-c2ncc(-c3ccc(NC(=O)N(C)Cc4ccccc4)cc3S(=O)(=O)NC(C)(C)C)s2)cc1 [Compound M1]	
> 10	CC(=O)Nc1ccc(-c2cnc(-c3ccc(NC(=S)NC(C)C)cc3)s2)c(S(=O)(=O)NCCN)c1 [Compound D17]	
< 5	CC(C)NC(=S)Nc1ccc(-c2ncc(-c3ccc(NC(=O)NCc4ccncc4)cc3S(=O)(=O)NC(C)(C)C)s2)cc1 [Compound M2]	

EC50 [µM]	Compound	EC50 (μM)
< 5	COc1cc(-c2ncc(-c3ccc(NC(=O)OC(C)C)cc3S(=O)(=O)NC(C)(C)C)s2)ccc1NC(=O)OC(C)C [Compound R3]	
< 10	CC(C)OC(=O)Nc1ccc(-c2ncc(-c3ccc(N4CC(C)OC4=O)cc3S(=O)(=O)NC(C)(C)C)s2)cc1 (stereo not drawn) [Compound J26, isopropyl (4-(5-(2-(N-(tert-butyl)sulfamoyl)-4-(5-methyl-2-oxooxazolidin-3-yl)phenyl)thiazol-2-yl)phenyl)carbamate]	
< 5	CC(C)OC(=O)Nc1ccc(-c2ncc(-c3ccc(NC(=O)OCCN)cc3S(=O)(=O)NC(C)(C)C)s2)cc1 [Compound B13]	
< 5	CC(C)OC(=O)Nc1ccc(-c2ncc(-c3ccc(CNC(=O)c4ccncc4)cc3S(=O)(=O)NC(C)(C)C)s2)cc1 [Compound O7]	
< 1	CC(=O)Nc1ccc(-c2cnc(-c3ccc(NC(=S)NC(C)C)cc3S(=O)(=O)NC(C)(C)C)s2)c(S(=O)(=O)NC(C)(C)C)c1 [Compound E9]	
> 10	CC(C)OC(=O)Nc1ccc(-c2ncc(-c3ccc(CNC(=O)CCO)cc3S(=O)(=O)NC(C)(C)C)s2)cc1 [Compound O3]	
	Cc1cc(-c2ncc(-c3ccc(N4CCCC4=O)cc3S(=O)(=O)NC(C)(C)C)s2)ccc1NC(=O)OC(C)C [Compound J17]	FAIL
> 10	CC(=O)Nc1ccc(-c2cnc(-c3ccc(NC(=S)NC(C)C)cc3)s2)c(S(=O)(=O)NCCO)c1 [Compound D28]	
> 10	CC(C)OC(=O)Nc1ccc(-c2ncc(-c3ccc(NS(C)(=O)=O)cc3S(=O)(=O)NC(C)(C)C)s2)cc1 [Compound H11]	
< 10	CCOC(=O)NCc1ccc(-c2cnc(-c3ccc(NC(=O)OC(C)C)cc3)s2)c(S(=O)(=O)NC(C)(C)C)c1 [Compound P8]	
> 10	CC(=O)Nc1ccc(-c2cnc(-c3ccc(NC(=S)NC(C)C)cc3)s2)c(S(=O)(=O)NCc2ccccc2)c1 [Compound D19]	
< 1	CC(C)OC(=O)Nc1ccc(-c2ncc(-c3ccc(NC(=O)OCc4ccncc4)cc3S(=O)(=O)NC(C)(C)C)s2)cc1 [Compound B4]	
< 5	CC(C)OC(=O)Nc1ccc(-c2ncc(-c3ccc(NC(=O)[C@@H]4CCCN4)cc3S(=O)(=O)NC(C)(C)C)s2)cc1 [Compound H1]	
< 5	CC(=O)Nc1ccc(-c2ncc(-c3ccc(NC(=S)NC(C)C)cc3S(=O)(=O)NC(C)(C)C)s2)c(S(=O)(=O)NC(C)(C)C)c1 [Compound E21]	
< 5	CC(C)OC(=O)Nc1ccc(-c2ncc(-c3ccc(-c4ccn[nH]4)cc3S(=O)(=O)NC(C)(C)C)s2)cc1 [Compound J2]	
< 10	CC(C)NC(=S)Nc1ccc(-c2ncc(-c3ccc(NC(=O)NC(C)c4ccccc4)cc3S(=O)(=O)NC(C)(C)C)s2)cc1 (stereo not drawn) [Compound M7]	
< 5	CC(C)OC(=O)Nc1ccc(-c2ncc(-c3ccc(N4CCCOC4=O)cc3S(=O)(=O)NC(C)(C)C)s2)cc1 [Compound J24, isopropyl N-[4-[5-[2-(tert-butylsulfamoyl)-4-(2-oxo-1,3-oxazinan-3-yl)phenyl]thiazol-2-yl]phenyl]carbamate]	

Compound	EC50 [µM]	EC50 (μM)
CC(C)OC(=O)Nc1ccc(-c2ncc(-c3ccc(NC(=S)NCc4ccccc4)cc3S(=O)(=O)NC(C)(C)C)s2)cc1 [Compound L8]	< 1	
CC(O)CNc1ccc(-c2cnc(-c3ccc(NC(=O)OC(C)C)cc3)s2)c(S(=O)(=O)NC(C)(C)C)c1 (stereo not drawn) [Compound J25, isopropyl N-[4-[5-[2-(tert-butylsulfamoyl)-4-(2-hydroxypropylamino)phenyl]thiazol-2-yl]phenyl]carbamate]	< 5	
CC(=O)Nc1ccc(-c2cnc(-c3ccc(NC(=O)OC(C)C)nc3)s2)c(S(=O)(=O)NC(C)(C)C)c1 [Compound J5]	< 1	
COC(=O)Nc1ccc(-c2cnc(-c3ccc(NC(=S)NC(C)C)cc3)s2)c(S(=O)(=O)NC(C)(C)C)c1 [Compound L7]	> 10	
CC(=O)Nc1ccc(-c2cnc(-c3ccc(NC(=O)OC(C)C)cc3)s2)c(S(=O)(=O)NC(C)(C)C)c1 [Compound E11]	< 5	
